Source: patent publication US20030086900A1, “Method of treatment using ligand-immunogen conjugates” (priority 2001, published 2003)

Tested on: M109 cells
Assay: Survival of mice with M109 lung tumor implants, folate-MDP therapy
Assay type: in vivo
Settings: female Balb/c mice, M109 cells i.p.; folate-MDP 15 nmoles/kg, IL-2 5,000 IU/dose, IFN-α 25,000 U/dose; injections on days 7, 8, 9, 11, 14
Description: Female Balb/c mice were injected on day 0 with 5×10^5 M109 cells, a syngeneic lung cancer cell line that expresses high levels of the folate receptor. In an effort to reduce the time required to obtain long-term survival data, the tumor cells were implanted intraperitoneally close to the liver. Cancer loci were then allowed to attach and grow. The animals were then injected with PBS (control) or were co-injected with folate-muramyl dipeptide (MDP) (15 nmoles/kg), IL-2 (5,000 IU/dose), and IFN-α (25,000 U/dose) on days 7, 8, 9, 11, and 14 after tumor cell implantation. Folate was conjugated to MDP via a gamma carboxyl-linked ethylene diamine bridge. Additional animals were injected with 80 nmoles/kg MDP, 15 nmoles/kg folate-MDP, or 80 nmoles/kg MDP and IL-2 and IFN-α at the concentrations specified above. The efficacy of this immunotherapy was evaluated by monitoring survival as a function of time of folate-MDP treated mice compared to control animals.

Substance: folate-muramyl dipeptide [folate-MDP]
- effect on long-term survival of tumor-bearing mice: negligible effect
